Common to all, as to assay: In vitro cytotoxicity assay (resazurin reduction test)
Holding throughout (type): cell-based
In general terms: Resazurin is reduced to fluorescent resorufin, in cell work by metabolically active cells.

The subject of assay [1] is Breast cancer adenocarcinoma MCF 7. As to conditions: Homo sapiens; MCF7; 48-h continuous drug exposure. The text has this:
(§1) Normal human fibroblasts were purchased from Promocell (Heidelberg, Germany). This frozen culture was obtained from foreskin waste and the cells used in this work were from the seventh to twelfth passage of the culture. M4Beu, a human melanoma cell line, was established in the laboratory of Dr. J. F. Doré (INSERM, Unit 218, Lyon, France) from metastatic biopsy specimens and maintained in cell culture for almost 20 years in our lab. Breast cancer adenocarcinoma MCF 7, prostatic adenocarcinoma PC 3, colon adenocarcinoma DLD-1, lung non-small cell carcinoma A 549, ovary adenocarcinoma PA1 human cell lines and L 929 murine cell line were purchased from the European Collection of Cell Cultures (ECACC; Salisbury, United Kingdom). Murine Melanoma B16 was purchased from American Type of Culture Collection (ATCC, Manassas, USA) and murine colon carcinoma cell line CT-26 was obtained from Dr I. J. Fidler (University of Texas M.D. Anderson Cancer Center, Houston).
(§2) Stock cell cultures were maintained as monolayers in 75cm^2 culture flasks in Glutamax Eagle's minimum essential medium with Earle's salts (MEM; Gibco BRL, Paisley, UK) supplemented with 10% fetal calf serum (Sigma, St Quentin Fallavier, France), 1 mM sodium pyruvate (Gibco), 1X vitamins solution (Gibco), 1X non essential amino acids solution (Gibco) and 4 µg/ml of gentamicine (Gibco). Cells were grown at 37°C in a humidified atmosphere containing 5% CO2.
(§3) Cells were plated at a density of 5 x 10^3 cells per well in 96-well microplates (Nunclon™, Nunc, Roskilde, Denmark) in 150 µl of culture medium and were allowed to adhere for 16 h before treatment with the compound tested.
(§4) Stock solution of each compound was prepared in dimethylsulfoxide (DMSO) and kept at -20°C. until use. The percentage of DMSO was kept at 0.5% (v/v) whichever the concentration tested. […] Fifty microliters of a 4X solution in MEM was then added and a 48-h continuous drug exposure protocol was used. Then, the cytotoxic effect of compounds on tumour cells was tested by using Resazurin reduction test.
(§5) Resazurin was identified as the Alamar blue dye (O'Brien, J. et al.; European Journal of Biochemistry, 267, 5421-6, (2000)). The resazurin reduction test (RRT) was carried out according to the protocol described here. Briefly, plates were rinsed by 200 µl PBS (37° C, Gibco) using a multichannel dispenser (Labsystems, Helsinki, Finland) and emptied by overturning on absorbent toweling. Then, 150 µl of a 25 µg/ml solution of resazurin in MEM without SVF nor Phenol red was added in each well. The plates were incubated 1 h at 37° C. in an humidified atmosphere with 5% of CO2 for fluorescence development by living cells. Fluorescence was then measured on the automated 96-well plate reader Fluoroskan Ascent FL™ (Labsystems) using an excitation wavelength of 530 nm and an emission one of 590 nm.
(§6) Cytotoxic activity has been tested against the six human tumour cell lines breast adenocarcinoma MCF-7, colon adenocarcinoma DLD-1, ovary adenocarcinoma PA1, prostatic adenocarcinoma PC3, lung carcinoma A549, melanoma M4Beu and a primary culture of human fibroblasts.

The subject of assay [2] is M4Beu, a human melanoma cell line. Conditions: 48-h continuous drug exposure.
Excerpt: as §1, §2, §3, §4, §5, §6

The subject of a further assay is Normal human fibroblasts. As to conditions: Fibroblast, 48-h continuous drug exposure.
Excerpt: as §1, §2, §3, §4, §5, §6

In assay [3] the test system is colon adenocarcinoma DLD-1. As to conditions: Homo sapiens, DLD1, 48-h continuous drug exposure.
Excerpt: as §1, §2, §3, §4, §5, §6

The test system of assay [4] is lung non-small cell carcinoma A 549. As to conditions: Homo sapiens; A549; 48-h continuous drug exposure.
Excerpt: as §1, §2, §3, §4, §5, §6

The next assay concerns ovary adenocarcinoma PA1. Conditions: Homo sapiens, 48-h continuous drug exposure.
Excerpt: as §1, §2, §3, §4, §5, §6

Assay [5] deals with prostatic adenocarcinoma PC 3. As to conditions: Homo sapiens; PC3; 48-h continuous drug exposure.
Excerpt: as §1, §2, §3, §4, §5, §6

The test system of another assay is Murine Melanoma B16. Conditions: Mus musculus, 48-h continuous drug exposure.
Excerpt: as §1, §2, §3, §4, §5

In assay [6] the test system is murine colon carcinoma cell line CT-26. Conditions: Mus musculus; CT26; 48-h continuous drug exposure.
Excerpt: as §1, §2, §3, §4, §5

A word on the IC50: it is the point on the concentration scale where inhibition reaches its midpoint. Low readings indicate greater potency in that assay, high ones weaker potency in that assay. As to `CC(=O)OC[C@H]1O[C@@H](NC(=O)CCNC(=O)CCCc2ccc(N(CCCl)CCCl)cc2)[C@H](F)[C@@H](OC(C)=O)[C@@H]1OC(C)=O` [Compound 31a, N-[3-(3,4,6-tri-O-acetyl-2-deoxy-2-fluoro-β-D-glucopyranosylamino)-3-oxopropyl]-4-{4-[bis(2-chloroethyl)amino]phenyl}butanamide], the IC50 was 13 ± 5 µM in assay [1]; 15 ± 3 µM in assay [2]; 7 ± 5 µM in the assay on Normal human fibroblasts; 11 ± 4 µM in [3]; 9.2 ± 0.5 µM in assay [4]; 0.24 ± 0.08 µM in the assay on ovary adenocarcinoma PA1. Also, the IC50 in [5] came to 3.7 ± 0.3 µM.
Take `CC(=O)OC[C@H]1O[C@@H](NC(=O)c2ccc(NC(=O)CCCc3ccc(N(CCCl)CCCl)cc3)cc2)[C@H](F)[C@@H](OC(C)=O)[C@@H]1OC(C)=O` [Compound 20a, N-(3,4,6-tri-O-acetyl-2-deoxy-2-fluoro-β-D-glucopyranosyl)-4-(4-{4-[bis(2-chloroethyl)amino]phenyl}butanamido)benzamide]: the IC50 in [1] worked out at 5 ± 2 µM; in assay [2], 7 ± 3 µM; in the assay on Normal human fibroblasts, 4 ± 2 µM; in [3], 3 ± 2 µM; in assay [4], 2.7 ± 0.6 µM; in the assay with ovary adenocarcinoma PA1, 0.3 ± 0.1 µM. The values for the IC50 (in [5]; in the assay on Murine Melanoma B16; in assay [6]) were 1.4 ± 0.3 µM, 4.6 ± 0.3 µM and 1.7 ± 0.3 µM, respectively.
Consider `CC(=O)OC[C@H]1O[C@@H](NC(=O)NCCCc2ccc(N(CCCl)CCCl)cc2)[C@H](F)[C@@H](OC(C)=O)[C@@H]1OC(C)=O` [Compound 17a, N-(3,4,6-tri-O-acetyl-2-deoxy-2-fluoro-β-D-glucopyranosyl)-N'-{3-(4-[bis(2-chloroethyl)amino]phenyl)propyl}urea], for which the IC50 in [1] was found to be 26.4 ± 0.6 µM; in assay [2] it was 27 ± 11 µM; in the assay on Normal human fibroblasts, 13 ± 2 µM; in [3] it was 7 ± 3 µM; in [4] it was 8 ± 2 µM; in the assay with ovary adenocarcinoma PA1, 0.6 ± 0.2 µM. In addition, inhibition in assay [5] was half-maximal at 4 ± 1 µM (IC50).
Take `CC(=O)OC[C@H]1O[C@@H](NC(=O)CCCNC(=O)CCCc2ccc(N(CCCl)CCCl)cc2)[C@H](F)[C@@H](OC(C)=O)[C@@H]1OC(C)=O` [Compound 22a, N-[4-(3,4,6-tri-O-acetyl-2-deoxy-2-fluoro-β-D-glucopyranosylamino)-4-oxobutyl]-4-{4-[bis(2-chloroethyl)amino]phenyl}butanamide]: the IC50 in [1] worked out at 12 ± 1 µM; in assay [2] it was 9 ± 3 µM; in the assay with Normal human fibroblasts it was 4.1 ± 0.1 µM; in assay [3], 9 ± 2 µM; in [4], 13 ± 5 µM; in the assay on ovary adenocarcinoma PA1 it was 0.27 ± 0.04 µM. The same compound gave an IC50 in [5] of 3 ± 1 µM.
As to `CC(=O)OC[C@H]1O[C@@H](Oc2ccc(NC(=O)CCCc3ccc(N(CCCl)CCCl)cc3)cc2)[C@H](F)[C@@H](OC(C)=O)[C@@H]1OC(C)=O` [Compound 37a, N-[4-(3,4,6-tri-O-acetyl-2-deoxy-2-fluoro-β-D-glucopyranosyloxy)phenyl]-4-{4-[bis(2-chloroethyl)amino]phenyl}butanamide], the concentration for half-maximal inhibition (IC50) in assay [1] is 26 ± 11 µM; in [2], greater than 50 µM; with Normal human fibroblasts, greater than 50 µM; in assay [3], 10 ± 5 µM; in assay [4], 1.9 ± 0.01 µM; with ovary adenocarcinoma PA1, 0.76 ± 0.06 µM. Besides, the IC50 in assay [5] was 11 ± 4 µM.

Values taken from patent EP1881000A1, “Conjugates of 2-fluoro-2-deoxy-glucose and their uses as anti cancer agents” (INSTITUT NATIONAL DE LA SANTE ET DE LA RECHERCHE MEDICALE …, priority 2006, dated 2008).
